According to patent US8137707B2, “Method of obtaining an active ingredient increasing cutaneous cell and tissue longevity, active ingredients and compositions” (Societe Industrielle Limousine d'Application Biologique, …, priority 2006, dated 2012):

Tested on: rat-tail collagen
Experiment: Glycation of collagen induced by glycoaldehyde, fluorescence of glycation products
Format: biochemical
Conditions: 32 μl of aminoguanidine at 3.39 M, 14 days at 37° C.
Description: The study is carried out according to the operating protocol that follows.
On D0, samples to be tested are prepared in sterile hemolysis tubes: • a non-glycated collagen reference, containing • 1 ml of 3 mg/ml rat-tail collagen, • a glycated collagen reference, containing • 1 ml of 3 mg/ml rat-tail collagen, and • 0.3 ml of a glycoaldehyde solution at 143 mM, inducing the glycation reaction, • a positive reference, containing • 1 ml of 3 mg/ml of rat-tail collagen, • 0.3 ml of a solution of glycoaldehyde at 143 mM, inducing the glycation reaction, and • 32 μl of aminoguanidine at 3.39 M, inhibiting the glycation reaction. • product tests, containing • 1 ml of 3 mg/ml rat-tail collagen, • 0.3 ml of a solution of glycoaldehyde at 143 mM, inducing the glycation reaction, and • the active principle according to the invention at 1%, 2.5% and 5%.
The samples are incubated at 37° C. protected from light for 14 days.
On D14, the fluorescence emitted by the glycation products formed is measured with the aid of a spectrofluorimeter.

In the case of N=C(N)NN [Positive reference, aminoguanidine], the “Fluorescence Value” (glycated collagen reference 449) is reported as 189 and the “Effectiveness (%)” value (versus glycated collagen reference) is reported as −58%.
